{"source": "ChEMBL document CHEMBL1137274", "about": "“Discovery and synthesis of tetrahydroindolone-derived carbamates as Kv1.5 blockers” (Bioorg Med Chem Lett, 2006)", "key": {"[1]": {"target": "T1, Potassium voltage-gated channel subfamily A member 5 (Homo sapiens, UniProt P22460)", "T1 sequence (P22460 whole entry)": "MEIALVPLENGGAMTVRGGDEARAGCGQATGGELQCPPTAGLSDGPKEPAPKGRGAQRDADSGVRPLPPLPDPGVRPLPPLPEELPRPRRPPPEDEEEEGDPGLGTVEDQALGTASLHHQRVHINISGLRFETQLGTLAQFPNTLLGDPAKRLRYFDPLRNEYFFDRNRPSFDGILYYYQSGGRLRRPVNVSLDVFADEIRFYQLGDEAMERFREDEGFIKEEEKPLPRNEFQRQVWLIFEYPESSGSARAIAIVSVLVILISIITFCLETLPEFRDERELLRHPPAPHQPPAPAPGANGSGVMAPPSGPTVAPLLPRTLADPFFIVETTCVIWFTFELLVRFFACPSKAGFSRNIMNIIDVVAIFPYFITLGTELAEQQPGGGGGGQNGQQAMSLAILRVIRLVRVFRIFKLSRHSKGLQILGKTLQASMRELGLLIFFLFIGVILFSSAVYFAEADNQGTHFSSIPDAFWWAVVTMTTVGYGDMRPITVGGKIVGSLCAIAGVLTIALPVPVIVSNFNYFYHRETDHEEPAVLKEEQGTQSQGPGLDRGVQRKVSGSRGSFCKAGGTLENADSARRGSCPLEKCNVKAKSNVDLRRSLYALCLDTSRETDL", "experiment": "Inhibition of Kv1.5 expressed in LTK- cells by whole cell patch clamp assay at 1uM", "assay_type": "functional, cell-based"}, "[2]": {"target": "T1, Potassium voltage-gated channel subfamily A member 5", "experiment": "Inhibition of Kv1.5 expressed in LTK- cells by whole cell patch clamp assay", "assay_type": "functional, cell-based"}, "Homo sapiens [3]": {"species": "Homo sapiens", "experiment": "Selectivity for Kv1.5 compared to hERG", "assay_type": "functional"}, "[4]": {"target": "Voltage-gated L-type calcium channel (Homo sapiens, UniProt Q13936+Q13698+Q01668+O60840)", "experiment": "Inhibition of L-type calcium channel by FLIPR assay", "assay_type": "functional"}, "Homo sapiens [5]": {"species": "Homo sapiens", "experiment": "Selectivity for Kv1.5 compared to L-type calcium channel", "assay_type": "functional"}, "[6]": {"target": "Voltage-gated inwardly rectifying potassium channel KCNH2 (Homo sapiens, UniProt Q12809)", "sequence (Q12809 whole entry)": "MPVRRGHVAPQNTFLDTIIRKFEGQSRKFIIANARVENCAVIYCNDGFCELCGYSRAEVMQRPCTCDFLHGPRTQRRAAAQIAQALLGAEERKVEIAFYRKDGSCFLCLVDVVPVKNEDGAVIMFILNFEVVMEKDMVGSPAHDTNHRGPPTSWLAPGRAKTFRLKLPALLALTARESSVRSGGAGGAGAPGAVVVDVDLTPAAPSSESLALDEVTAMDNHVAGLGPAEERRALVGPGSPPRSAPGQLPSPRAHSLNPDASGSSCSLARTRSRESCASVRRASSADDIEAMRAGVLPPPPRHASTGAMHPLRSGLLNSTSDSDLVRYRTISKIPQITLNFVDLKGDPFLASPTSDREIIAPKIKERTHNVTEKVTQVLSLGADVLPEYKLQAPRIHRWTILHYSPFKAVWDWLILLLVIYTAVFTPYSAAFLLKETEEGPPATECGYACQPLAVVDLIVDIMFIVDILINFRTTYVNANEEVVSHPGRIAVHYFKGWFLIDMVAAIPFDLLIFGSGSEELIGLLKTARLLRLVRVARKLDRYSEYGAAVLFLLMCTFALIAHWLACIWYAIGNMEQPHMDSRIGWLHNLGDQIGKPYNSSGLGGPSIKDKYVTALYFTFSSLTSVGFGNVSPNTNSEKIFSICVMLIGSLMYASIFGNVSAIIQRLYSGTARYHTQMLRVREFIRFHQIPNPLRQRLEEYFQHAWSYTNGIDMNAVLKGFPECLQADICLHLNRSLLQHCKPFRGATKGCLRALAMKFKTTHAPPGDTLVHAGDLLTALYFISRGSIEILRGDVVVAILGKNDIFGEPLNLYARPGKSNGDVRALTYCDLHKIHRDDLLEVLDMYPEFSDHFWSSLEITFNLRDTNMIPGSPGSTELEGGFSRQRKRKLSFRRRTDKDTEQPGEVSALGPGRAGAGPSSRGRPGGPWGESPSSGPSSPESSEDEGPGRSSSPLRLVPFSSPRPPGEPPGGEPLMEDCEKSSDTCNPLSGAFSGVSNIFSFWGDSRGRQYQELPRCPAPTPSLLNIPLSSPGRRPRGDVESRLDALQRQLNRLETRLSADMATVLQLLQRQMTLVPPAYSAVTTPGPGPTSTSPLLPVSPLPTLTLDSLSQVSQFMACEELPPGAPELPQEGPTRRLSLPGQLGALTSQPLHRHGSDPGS", "experiment": "Inhibition of hERG expressed in HEK cells by whole cell patch clamp assay", "assay_type": "toxicity, cell-based, HEK293"}}}
{"smiles": "CCc1c2c(n(CC)c1C)CCC/C2=N\\OC(=O)Nc1ccccc1", "values": [{"measurement": "inhibition", "setting": "[1]", "result": 35, "unit": "%"}]}
{"smiles": "CCc1c(C)[nH]c2c1/C(=N/OC(=O)NCCc1ccccc1)CCC2", "values": [{"measurement": "inhibition", "setting": "[1]", "result": 76, "unit": "%"}]}
{"smiles": "CC(=O)c1ccc(NC(=O)O/N=C2\\CCCc3[nH]c(C)c(C)c32)cc1", "values": [{"measurement": "inhibition", "setting": "[1]", "result": 60, "unit": "%"}]}
{"smiles": "Cc1[nH]c2c(c1C)/C(=N/OC(=O)Nc1ccc(Cl)cc1)CCC2", "values": [{"measurement": "inhibition", "setting": "[1]", "result": 78, "unit": "%"}]}
{"smiles": "CCc1c(C)[nH]c2c1/C(=N/OC(=O)Nc1ccc(C#N)cc1)CCC2", "values": [{"measurement": "inhibition", "setting": "[1]", "result": 95, "unit": "%"}]}
{"smiles": "CCc1c(C)[nH]c2c1/C(=N/OC(=O)Nc1ccc(C(C)=O)cc1)CCC2", "values": [{"measurement": "inhibition", "setting": "[1]", "result": 91, "unit": "%"}]}
{"smiles": "CC(=O)c1ccc(NC(=O)O/N=C2\\CCCc3c2c(C(C)C)c(C)n3C)cc1", "values": [{"measurement": "inhibition", "setting": "[1]", "result": 96, "unit": "%"}]}
{"smiles": "CCc1[nH]c2c(c1CC)/C(=N/OC(=O)Nc1ccccc1)CCC2", "values": [{"measurement": "inhibition", "setting": "[1]", "result": 84, "unit": "%"}]}
{"smiles": "CC(=O)c1ccc(NC(=O)O/N=C2\\CCCC3=C2C2CCCC2N3)cc1", "note": "(stereo unspecified)", "values": [{"measurement": "inhibition", "setting": "[1]", "result": 79, "unit": "%"}]}
{"smiles": "CCc1[nH]c2c(c1CC)/C(=N/OC(=O)Nc1ccc(Cl)cc1)CCC2", "values": [{"measurement": "inhibition", "setting": "[1]", "result": 87, "unit": "%"}]}
{"smiles": "CCc1c(C)[nH]c2c1/C(=N/OC(=O)Nc1ccc(C(C)(C)C)cc1)CCC2", "values": [{"measurement": "inhibition", "setting": "[1]", "result": 6, "unit": "%"}]}
{"smiles": "CCc1c(C)[nH]c2c1/C(=N/OC(=O)Nc1ccc(C)cc1)CCC2", "values": [{"measurement": "inhibition", "setting": "[1]", "result": 85, "unit": "%"}]}
{"smiles": "CCc1c(C)[nH]c2c1/C(=N/OC(=O)Nc1ccc(SC)cc1)CCC2", "values": [{"measurement": "IC50", "setting": "[2]", "result": 350, "unit": "nM"}, {"measurement": "inhibition", "setting": "[1]", "result": 90, "unit": "%"}]}
{"smiles": "CCc1c(C)[nH]c2c1/C(=N/OC(=O)Nc1ccc(F)cc1)CCC2", "values": [{"measurement": "IC50", "setting": "[2]", "result": 275, "unit": "nM"}, {"measurement": "inhibition", "setting": "[1]", "result": 90, "unit": "%"}]}
{"smiles": "CCc1c(C)[nH]c2c1/C(=N/OC(=O)Nc1cccc(SC)c1)CCC2", "values": [{"measurement": "inhibition", "setting": "[1]", "result": 73, "unit": "%"}]}
{"smiles": "CCc1c2c(n(C)c1CC)CCC/C2=N\\OC(=O)Nc1ccccc1", "values": [{"measurement": "Ratio", "setting": "Homo sapiens [3]", "result": "> 450"}, {"measurement": "IC50", "setting": "[2]", "result": 21, "unit": "nM"}, {"measurement": "IC50", "setting": "[4]", "result": 20000, "unit": "nM"}, {"measurement": "Ratio", "setting": "Homo sapiens [5]", "result": "> 450"}, {"measurement": "inhibition", "setting": "[1]", "result": 99, "unit": "%"}, {"measurement": "IC50", "setting": "[6]", "result": "> 30000", "unit": "nM"}]}
{"smiles": "O=C(Nc1ccc(Cl)cc1)O/N=C1\\CCCC2=C1C1CCCC1N2", "note": "(stereo unspecified)", "values": [{"measurement": "inhibition", "setting": "[1]", "result": 58, "unit": "%"}]}
{"smiles": "CCc1c2c(n(C)c1C)CCC/C2=N\\OC(=O)Nc1ccccc1", "values": [{"measurement": "inhibition", "setting": "[1]", "result": 77, "unit": "%"}]}
{"smiles": "CCc1c(C)[nH]c2c1/C(=N/OC(=O)NCc1ccccc1)CCC2", "values": [{"measurement": "inhibition", "setting": "[1]", "result": 70, "unit": "%"}]}
{"smiles": "CCc1c(C)[nH]c2c1/C(=N/OC(=O)Nc1ccc(C(C)C)cc1)CCC2", "values": [{"measurement": "inhibition", "setting": "[1]", "result": 51, "unit": "%"}]}
{"smiles": "O=C(Nc1ccccc1)O/N=C1\\CCCC2=C1C1CCCC1N2", "note": "(stereo unspecified)", "values": [{"measurement": "inhibition", "setting": "[1]", "result": 79, "unit": "%"}]}
{"smiles": "Cc1[nH]c2c(c1C)/C(=N/OC(=O)Nc1ccccc1)CCC2", "values": [{"measurement": "inhibition", "setting": "[1]", "result": 57, "unit": "%"}]}
{"smiles": "CCc1c(C)[nH]c2c1/C(=N/OC(=O)NCCc1ccccn1)CCC2", "values": [{"measurement": "IC50", "setting": "[2]", "result": 547, "unit": "nM"}, {"measurement": "inhibition", "setting": "[1]", "result": 91, "unit": "%"}]}
{"smiles": "CCc1c(C)[nH]c2c1/C(=N/OC(=O)Nc1ccccc1SC)CCC2", "values": [{"measurement": "inhibition", "setting": "[1]", "result": 41, "unit": "%"}]}
{"smiles": "CCc1c2c(n(CC)c1C)CCC/C2=N\\OC(=O)Nc1ccc(C(C)=O)cc1", "values": [{"measurement": "inhibition", "setting": "[1]", "result": 71, "unit": "%"}]}
{"smiles": "CCc1c(C)[nH]c2c1/C(=N/OC(=O)Nc1ccc(Cl)cc1)CCC2", "values": [{"measurement": "inhibition", "setting": "[1]", "result": 91, "unit": "%"}]}
{"smiles": "CCc1c(C)[nH]c2c1/C(=N/OC(=O)Nc1ccc(OC)cc1)CCC2", "values": [{"measurement": "inhibition", "setting": "[1]", "result": 90, "unit": "%"}]}
{"smiles": "CCc1c2c(n(C)c1C)CCC/C2=N\\OC(=O)Nc1ccc(C(C)=O)cc1", "values": [{"measurement": "IC50", "setting": "[2]", "result": 368, "unit": "nM"}, {"measurement": "inhibition", "setting": "[1]", "result": 96, "unit": "%"}]}
{"smiles": "CCc1c(C)[nH]c2c1/C(=N/OC(=O)Nc1ccccc1)CCC2", "values": [{"measurement": "Ratio", "setting": "Homo sapiens [3]", "result": "> 450"}, {"measurement": "IC50", "setting": "[2]", "result": 67, "unit": "nM"}, {"measurement": "IC50", "setting": "[4]", "result": "> 30000", "unit": "nM"}, {"measurement": "Ratio", "setting": "Homo sapiens [5]", "result": "> 450"}, {"measurement": "inhibition", "setting": "[1]", "result": 91, "unit": "%"}, {"measurement": "IC50", "setting": "[6]", "result": "> 30000", "unit": "nM"}]}
{"smiles": "CCc1c(C)[nH]c2c1/C(=N/OC(=O)NCCc1ccncc1)CCC2", "values": [{"measurement": "inhibition", "setting": "[1]", "result": 20, "unit": "%"}]}
{"smiles": "CCc1c2c(n(C)c1CC)CCC/C2=N\\OC(=O)Nc1ccc(C(C)=O)cc1", "values": [{"measurement": "inhibition", "setting": "[1]", "result": 92, "unit": "%"}]}
{"smiles": "CCc1c(C)[nH]c2c1/C(=N/OC(=O)NCCc1cccnc1)CCC2", "values": [{"measurement": "inhibition", "setting": "[1]", "result": 25, "unit": "%"}]}
